Literature values as cited in publication PMC8309005, “Novel Non-Congeneric Derivatives of the Choline Kinase Alpha Inhibitor ICL-CCIC-0019” (Pharmaceutics, 2021).

Columns and labels:
HeLa = tested on: HeLa; set-up: method as in ref 20, 21 (MN58B), 23 (RSM-932A); conditions: 21 (MN58B), 23 (RSM-932A); cited from earlier work
A431 = tested on: A431; set-up: method as in PMID 12678804, PMID 10397253; conditions: cited from earlier work
HT-29 = tested on: HT-29; set-up: method as in ref 20, 21 (MN58B), 23 (RSM-932A); conditions: 21 (MN58B), 23 (RSM-932A); cited from earlier work
CHKA = tested on: CHKA; set-up: method as in ref 18, 25 (HC-3), 20, 21 (MN58B), 23 (RSM-932A); conditions: CHKA inhibitors of Figure 1; 25 (HC-3), 20, 21 (MN58B), 23 (RSM-932A); cited from earlier work
MCF-7 = tested on: MCF-7; set-up: method as in PMID 12678804, PMID 10397253; conditions: cited from earlier work
HepG2 = tested on: HepG2; set-up: method as in PMID 25487918; conditions: cited from earlier work

Compound	GI50 (HeLa)	GI50 (A431)	GI50 (HT-29)	IC50 (CHKA)	GI50 (MCF-7)	GI50 (HepG2)
CN(C)c1cc[n+](Cc2ccc(CCCCc3ccc(C[n+]4ccc(N(C)C)cc4)cc3)cc2)cc1 [MN58B]	1.2 µM	2.1 µM	1.4 µM	1.4 µM	0.6 µM	
C/[N+](c1ccc(Cl)cc1)=c1\ccn(Cc2ccc(-c3ccc(Cn4cc/c(=[N+](/C)c5ccc(Cl)cc5)c5ccccc54)cc3)cc2)c2ccccc12 [RSM-932A]	1 µM		1.3 µM	1 µM		1.3 µM
